Measurements published in patent US10463664B2, “Inhibitors of HSV nucleotidyl transferases and uses therefor” (Saint Louis University, priority 2013, dated 2019).

Columns and labels:
HSV-2 = HSV-2 viral DNA replication (quantitative PCR, GE) versus infectious virus (PFU) in Vero cells; format: cell-based, herpes simplex virus 2; conditions: for Fold suppression GE / Fold suppression PFU: 24 h, relative to DMSO
Description: Quantitative PCR measurement of viral genome levels. Infected cell cultures were collected and virus and cells were pelleted by centrifugation for 30 min at 12,000 rpm. Total DNA was isolated from the pellets using a QIAamp DNA Mini Kit (Qiagen) according to the manufacturer's instructions. DNA concentration of each preparation was measured using a Nanodrop 2000 spectrophotometer. The primers and probe for real-time PCR were designed to amplify a 108 bp segment in the HSV-2 LAT region. […] PCR reactions were set up in 25 μL containing FastStart Universal Probe master mix containing Rox (Roche), 900 nM forward and reverse primers, 250 nM probe, and 5 μL template DNA preparation (˜30-100 ng total DNA). Quantification was performed in triplicate for each DNA preparation using an ABI model 7500 genetic analyzer (Applied Biosystems) with the following cycling parameters: 1 cycle at 50° C. for 2 min, 1 cycle at 95° C. for 10 min, 40 cycles at 95° C. for 15 s, and 60° C. for 1 min. For absolute quantification, 10^3 to 10^8 copies of plasmid pcDNA3.1(+)5′Flag-ICP0 was used to generate a standard curve. Data were analyzed using Sequence Detection System software (ABI), and HSV-2 genome equivalents number per nanogram of total DNA was calculated and used for comparison.
Viral replication was measured 24 hours post-infection by plaque assay, and DNA replication was measured using quantitative PCR against the LAT gene and expressed as genome-equivalents (GE). […] Two inhibitor concentrations were assessed for compounds #30 (60 and 20 μM) and #46 (20 and 10 μM).

[1] = system: HSV-1 TK-deficient mutant ΔTK (strain 17); test: Replication inhibition of thymidine kinase-deficient HSV-1 mutant in Vero cells; format: cell-based, herpes simplex virus 1; conditions: 50 μM, 24 h
Description: Cells and Viruses. Vero cells were maintained in Dulbecco's modified Eagle's medium (DMEM) containing 3% newborn calf serum, 3% bovine growth serum, 2 mM L-glutamine and 100 IU/mL penicillin and 0.1 mg/mL streptomycin (P/S). Primary human foreskin fibroblasts (ATCC #CRL2429™) were cultured in DMEM containing 10% FBS, 2 mM L-glutamine plus P/S, and used at passage 3 to 12. HSV-1 #6 and HSV-2 #1 are de-identified clinical isolates from the Saint Louis University Hospital. Stocks were prepared after a single passage in cell culture and were titered by standard plaque assay (Knipe and Spang, 1982). Wild-type HSV-1 and HSV-2 used in FIG. 6 were laboratory strains 17 and 333, respectively. The HSV-1 TK-deficient mutant, ΔTK contains a 361-bp deletion between the BglII-SmaI restriction enzyme sites in the UL23 open reading frame of strain 17 (Korom, et al., 2013). The TK-deficient mutant of HSV-2 strain 333, ΔTK-, contains a 180-bp KpnI-KpnI deletion in the UL23 open reading frame that abrogates TK activity (McDermott, et al, 1984). ΔTK- was the generous gift of Jim Smiley. Virus stocks were grown and titered on Vero cells (Morrison and Knipe, 1996).
Inhibition of acyclovir-resistant HSV-1 and HSV-2 mutants. […] HSV TK-deficient mutants are therefore insensitive to ACV. […] Vero cells were infected with laboratory strains of HSV-1 or HSV-2 and engineered TK-deficient mutants of the same strains. […] Similar patterns were seen when the compounds were used at 5 μM (FIG. 8B), although inhibition by compound #30 at 5 μM was too low to definitively interpret.

Vero cells = test: MTT mitochondrial toxicity assay in Vero cells; format: cell-based; conditions: 24 h; read-out: Vero cell toxicity MTT CC50
[2] = system: primary human foreskin fibroblasts; test: in vitro
Description: Toxicity Assays. Qualitative assessments of cytotoxicity were done visually by inspecting the cells in the primary screening assays. For the quantitative assays, cells were plated in 96-well plates at 1.0×10^4 per well. The next day the compounds were added at 0.78 to 100 μM in a final concentration of 1% (v/v) DMSO, and the cells were incubated for 24 hours under conditions identical to those employed for the viral replication inhibition assays. Mitochondrial toxicity was measured by incubating the cells with 0.25 mg/mL thiazolyl blue tetrazolium bromide (MTT, SigmaAldrich Chemical Co.), the cultures were incubated for 60 min, metabolites were solubilized in acidic isopropanol, and absorbance was read at 570 nm. Cellular lysis was measured by detecting release of intracellular proteases with the CytoTox-Glo assay (Promega) according to the manufacturer's instructions. Percent viability was determined for each compound concentration from the maximal absorbance or luminosity data, and then CC50 values were calculated by non-linear curve fitting using GraphPad Prism.
Inhibition of viral replication was next assessed in human foreskin fibroblasts (HFF) to determine whether NTS inhibitors could block HSV-1 and HSV-2 replication in a physiologically relevant, primary human cell type. […] Viral yields 24 hours post-infection were measured by plaque assay.

HFFs = test: Neutral red cytotoxicity assay in HFFs (10 day, with plaque reduction assay); format: cell-based, human; conditions: 10 day assay
Description: HCMV plaque reduction EC50 and toxicity assays. Low passage primary HFFs were infected with HCMV strain AD169 in the presence of serial dilutions of the compounds from 0.032 to 100 μM. Ten days later the monolayers were stained with 1% neutral red solution in PBS. After rinsing, plaques were counted using a stereomicroscope and the EC50 was interpolated from the data. Cytotoxicity was measured using a plate-based assay in which compounds were added to HFFs at 0.032 to 100 μM. At the end of the incubation period, plates were stained for 1 h with a neutral red solution in PBS. The stain was then removed, the plates rinsed in PBS and dried, and dye internalized by viable cells was determined at OD550. CC50 values were interpolated from the data.
Compounds #41, 46, 49, 55, 56, and 59 and the FDA-approved, anti-HCMV drug ganciclovir were subsequently evaluated with plaque reduction and toxicity assays in HFFs. HFFs were infected with HCMV in the presence of serial dilutions of the compounds. After 10 days the cultures were stained with neutral red and plaques were counted. Compound cytotoxicity for uninfected cells was determined in the same manner except that neutral red uptake by viable cells was measured by optical density. […] The TI values for the five NTS inhibitors of HCMV ranged from 5 for compound #46 to 17 for #55 and 59. Therefore, NTS inhibitors can suppress HCMV replication in addition to inhibiting the HSVs.

Cc1cc(C2CCCCC2)n(O)c(=O)c1 [Compound 41, Ciclopirox, reference compound]
Fold suppression PFU/GE (HSV-2; 10 μM): 62.0 | Fold suppression GE (HSV-2; 10 μM): 551 fold | Fold suppression PFU (HSV-2; 10 μM): 34159 fold | Inhibition of TK-mutant HSV-1 (in words) [1]: efficiently inhibited

Nc1nc2c(ncn2COCCO)c(=O)[nH]1 [ACV, Acyclovir, reference compound]
Inhibition of TK-mutant HSV-1 (in words) [1]: little effect

CCOc1ccc(-c2c3cc(O)c(=O)cc-3oc3cc(O)c(O)cc23)cc1 [Compound 30]
CC50 (Vero cells): > 100 µM | Fold suppression PFU/GE (HSV-2; 20 μM): 4.5 | Fold suppression GE (HSV-2; 20 μM): 150 fold | Fold suppression PFU (HSV-2; 20 μM): 676 fold | Fold suppression PFU/GE (HSV-2; 60 μM): 143.7 | Fold suppression GE (HSV-2; 60 μM): 247 fold | Fold suppression PFU (HSV-2; 60 μM): 35500 fold | CC50 [2]: > 100 µM | Inhibition of TK-mutant HSV-1 (in words) [1]: efficiently inhibited

CC(C)=CCc1ccc(O)c(=O)cc1C(C)C [Compound 49, Nootkatin]
CC50 (Vero cells): > 100 µM | CC50 [2]: > 100 µM | CC50 (HFFs): 6.7 µM

CC(=O)NC(CCc1ccc(Cl)c(Cl)c1)c1cccc(O)c(=O)c1 (stereo not drawn) [Compound 55]
CC50 (Vero cells): > 100 µM | CC50 [2]: > 100 µM | CC50 (HFFs): 8 µM

CC(C)c1ccc(O)c(=O)c(O)c1 [Compound 46, Beta-thujaplicinol]
CC50 (Vero cells): > 100 µM | Fold suppression PFU/GE (HSV-2; 10 μM): 541.6 | Fold suppression GE (HSV-2; 10 μM): 470 fold | Fold suppression PFU (HSV-2; 10 μM): 254536 fold | Fold suppression PFU/GE (HSV-2; 20 μM): 538.2 | Fold suppression GE (HSV-2; 20 μM): 615 fold | Fold suppression PFU (HSV-2; 20 μM): 331000 fold | CC50 [2]: > 100 µM | CC50 (HFFs): 6.7 µM | Inhibition of TK-mutant HSV-1 (in words) [1]: efficiently inhibited

C=C(C)C1CCc2c(c(C)cc(O)c(=O)c2O)C1 (stereo not drawn) [Compound 56, Manicol]
CC50 (Vero cells): > 100 µM | Fold suppression PFU/GE (HSV-2; 20 μM): 314.3 | Fold suppression GE (HSV-2; 20 μM): 420 fold | Fold suppression PFU (HSV-2; 20 μM): 132000 fold | CC50 [2]: > 100 µM | CC50 (HFFs): 6.7 µM
